Data on 5 compounds can be found in patent publication US20160243151A1, “CO-RELEASING COMPOUNDS & FORMULATIONS THEREOF USEFUL FOR INDUCING MITOCHONDRIAL BIOGENESIS AND TISSUE REPAIR” (UNIVERSITÄT ZÜRICH, priority 2013, published 2016).

Data set [1] has as its system Hepa 1-6 cells. In words: NOS2 and IL10 mRNA in cytomix-exposed Hepa 1-6 cells. The class given is cell-based, mouse. The following applies: cytomix 24 h. On the procedure: Mouse hepatoma cells (ATCC, CRL-1830) were grown to near confluence according to the manufacturer's instructions and then exposed to cytomix (a) for 24 hours. At the time of cytomix exposure, cells were treated with B12-CORM2 (25 μM) (b) or the other compounds shown in panel (A). […] (B) shown the relative mRNA levels for the pro-inflammatory enzyme NOS2 (black) and the anti-inflammatory cytokine interleukin 10 (IL10) (white), as measured by real time RT-PCR. Control and cytomix-treated cells were harvested, disrupted, and total RNA extracted. Both gene products increased in response to cytomix, but B12-CORM2 reduced NOS2 and enhanced IL10 expression. […] Moreover, administration of the low molecular weight anti-oxidant N-acetyl cysteine (NAC, 5 mM) (d) abrogates the anti-inflammatory effect of the Re-based CORM according to the invention in accordance with the proposed redox mechanism of action. Finally, the NF-kB inhibitor BAY11 (BAY 11-7082, Santa Cruz) (e) fully blocks the cytomix effect on NOS2, but only partially reduces the effect on IL-10, indicating the NF-kB-independent mechanism of action of B12-CORM2 (*, P<0.05 compared with control cells; #, P<0.05 compared with cytomix treatment). […]
Inflammation assessment. The mRNA levels for the pro-inflammatory enzyme NOS2 and the anti-inflammatory cytokine interleukin 10 (IL10) were measured by real time RT-PCR.

For data set [2], the system named is H9c2 cells. Description: Western blot densitometry in H9c2 cells exposed to DOX. The class given is cell-based, rat. The note with it: +DOX (0.5 μg/ml), 3 days of differentiation. On the procedure:
(§1) Cell culture and treatments. H9c2 cells (embryonic rat cardiomyocytes; ATCC) were maintained in DMEM (Invitrogen) supplemented with 10% fetal bovine serum (Invitrogen) and 2 mmol/l 1-glutamine. Cells were plated on 35- or 100-mm dishes in DMEM with 2% FCS for differentiation. Doxorubicin (DOX) was added to complete medium and incubated at 37° C. for different intervals at a concentration (0.5 μg/ml) similar to the plasma concentrations encountered in clinical use. Some cells were exposed to B12-CORM2 (25 μM) with or without DOX. Cells collected after 3 days of differentiation.
Differentiation assessment. Western blot analysis and densitometry were performed relative to tubulin for alpha-actinin as a specific marker of cardiomyocyte differentiation and intactness of the contractile apparatus.
Mitochondrial integrity and density assessment. Western blot analysis and densitometry were performed relative to tubulin for citrate synthase.
DOX and/or B12-CORM2 were added complete medium on day 1.
(In general: In western blotting, separated proteins are transferred to a membrane and probed.)

The test system of data set [3] is H9c2 cells. Description: cell survival by Trypan blue exclusion in H9c2 cells exposed to DOX. The data set is classed as cell-based, rat. The note with it: +DOX (0.5 μg/ml). How it is done: as §1
Cell survival. Cell survival was measured by Trypan blue exclusion.
DOX and/or B12-CORM2 were added complete medium on day 1. […] Mitochondrial protection was accompanied by improved cell survival of B12-CORM2-treated cells exposed to DOX, as assessed by Trypan blue exclusion (Table 5).

Another data set has as its system E14 ESC embryoid bodies. In words: beating embryoid body out-growths. The class given is cell-based, mouse. The following applies: MitoQ given in the initial five days of differentiation. How it is done:
Culture and differentiation of murine E14 cells, murine D3 cells and human MEL1 cells. These cell lines were independently grown at 37° C. in 5% CO2 on gelatin-coated substrates prepared by coating plastic tissue culture flasks with a 0.1% gelatin solution. Cells were maintained in a standard medium (Iscove's Modified Dulbecco's Medium, Invitrogen) plus 15% newborn calf serum, non-essential amino acids, and nucleosides stock. Leukemia inhibitory factor (LIF) (Chemicon) at a final concentration of 1,000 U/ml and 100 μM 2-mercaptoethanol were added to standard medium to prevent differentiation. For the induction of differentiation the hanging drop method such as described in Keller, 1995, Curr. Opin. Cell. Biol., 7(6), 862-9 was used. E14 cells were cultivated without LIF in hanging drops to form embryoid bodies (EBs) ([…] cells per drop) for 2 days, then kept in suspension for 2 days, and finally plated on gelatin-coated, 96 well, single-culture dishes or single well slides. […] Adhered EBs monitored daily under an inverted microscope for spontaneously beating foci from day 3 onward until day 13. In total, 3×96 EBs from E14 cells were monitored. To confirm that the increase in contracting EBs is HO-1/CO-mediated, E14 cells were transduced with Sh-HO1 vector or empty vector, differentiated as above and monitored by fluorescence microscopy. […]

Data set [4] has as its system Hepa 1-6 cells. In words: MTT reduction assay in Hepa 1-6 cells. The class given is cell-based, mouse. The note with it: control and cytomix-exposed cells, 24 h. On the procedure:
Mouse hepatoma cells (ATCC, CRL-1830) were grown to near confluence according to the manufacturer's instructions and then exposed to cytomix (a) for 24 hours. At the time of cytomix exposure, cells were treated with B12-CORM2 (25 μM) (b) or the other compounds shown in panel (A). […] (B) shown the relative mRNA levels for the pro-inflammatory enzyme NOS2 (black) and the anti-inflammatory cytokine interleukin 10 (IL10) (white), as measured by real time RT-PCR. Control and cytomix-treated cells were harvested, disrupted, and total RNA extracted. Both gene products increased in response to cytomix, but B12-CORM2 reduced NOS2 and enhanced IL10 expression. […]
Metabolic capacity assessment: The metabolic state of Hepa 1-6 liver cells was measured using the MTT (3-(4,5-dimethylthiazol-2-yl)-2,5-diphenyltetrazolium bromide, a yellow tetrazole) reduction assay. MTT is reduced to the purple formazan by living cells, which is detected colorimetrically (at 570 nm). […]
Cytomix damages and kills liver cells such as Hepa 1-6 cells. The metabolic state of Hepa 1-6 liver cells were measured using the MTT reduction assay. MTT (3-(4,5-dimethylthiazol-2-yl)-2,5-diphenyltetrazolium bromide, a yellow tetrazole) is reduced to the purple formazan by living cells, which is detected colorimetrically. […]
A general note: Formazan colour is commonly taken as a measure of viable cells.

Regarding `Cc1ccc(S(=O)(=O)/C=C/C#N)cc1` [BAY11], in the data set with Hepa 1-6 cells [1], the “cytomix effect on NOS2 induction” value is “fully blocks the cytomix effect on NOS2 induction”.
For the compound `COc1cccc2c1C(=O)c1c(O)c3c(c(O)c1C2=O)C[C@@](O)(C(=O)CO)C[C@@H]3O[C@H]1C[C@H](N)[C@H](O)[C@H](C)O1` [DOX, Doxorubicin], in the data set on H9c2 cells [2], the “Alpha actinin expression levels (% as compared to untreated cells)” value was 57.1% (11) and the “Citrate synthase expression levels (% as compared to untreated cells)” value was 60% (12.3). The “Surviving cells (% as compared to untreated cells)” value with H9c2 cells [3] is listed as 61% (9.9).
For `COC1=C(OC)C(=O)C(CCCCCCCCCC[P+](c2ccccc2)(c2ccccc2)c2ccccc2)=C(C)C1=O` [MitoQ], the “effect on B12-CORM2-induced percentage of beating EB” value in the data set with E14 ESC embryoid bodies is listed as “the B12-CORM2 effect was blocked”.
For the compound `CC(=O)N[C@@H](CS)C(=O)O` [NAC, N-acetyl cysteine], the “inflammatory response to cytomix (NOS2, IL10 mRNA)” value in the data set with Hepa 1-6 cells [1] was “not protective”.
As to hemin, the “MTT reduction (metabolic capacity)” value with Hepa 1-6 cells [4] is “did not provide any protection against the cytomix-induced damage”.
